As usually defined, the Ki is a dissociation constant, usually derived from enzyme kinetics or from competition with a known ligand. What is called melting point is the temperature, or range, at which the solid turns liquid. Broadly, the EC50 is the concentration needed to bring the measured effect to its halfway point. Low readings indicate greater potency, high ones weaker potency.

Experimental findings from publication PMC9738591, “N-[1,3-Dialkyl(aryl)-2-oxoimidazolidin-4-ylidene]-aryl(alkyl)sulphonamides as Novel Selective Human Cannabinoid Type 2 Receptor (hCB2R) Ligands; Insights into the Mechanism of Receptor Activation/Deactivation” (Molecules, 2022) are described below.

In one data set the target is T1, human recombinant CB1R (Homo sapiens, UniProt P21554).
T1 construct: purchased Perkin-Elmer, Italy; host or cells: HEK-293 cells (membranes)
T1 sequence (P21554 whole entry): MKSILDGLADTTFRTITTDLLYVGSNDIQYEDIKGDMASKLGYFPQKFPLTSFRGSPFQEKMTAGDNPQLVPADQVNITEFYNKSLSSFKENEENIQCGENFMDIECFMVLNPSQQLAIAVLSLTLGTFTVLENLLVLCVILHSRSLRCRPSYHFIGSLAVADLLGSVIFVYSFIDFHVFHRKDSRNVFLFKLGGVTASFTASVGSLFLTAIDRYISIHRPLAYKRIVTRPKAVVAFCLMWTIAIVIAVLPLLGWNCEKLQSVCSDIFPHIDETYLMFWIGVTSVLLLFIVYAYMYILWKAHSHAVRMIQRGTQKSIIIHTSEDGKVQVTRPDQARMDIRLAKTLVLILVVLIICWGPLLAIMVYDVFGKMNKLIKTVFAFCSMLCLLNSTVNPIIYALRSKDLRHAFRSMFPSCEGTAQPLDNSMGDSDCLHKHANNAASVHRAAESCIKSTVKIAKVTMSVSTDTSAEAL
The experiment in a line: Competition binding assay, displacement of [3H]-CP-55,940 from membranes of HEK-293 cells overexpressing CB1R. The note with it: for inhibition at 10 µM: read-out: % Displacement/ Max. Conc. Tested, hCB1R. On the procedure:
(§1) The binding affinities (Ki values) of the compounds for human recombinant hCB1R and hCB2R were determined as previously described, using SR144528 as a reference compound [30], and are reported in Table 1.
(§2) Compound affinity for CB1R and CB2R was measured as previously reported. […] Competition curves were performed by displacing [^3H]-CP-55 940 with increasing concentrations of compounds (0.1 nM–10 or 25 μM). […] All compounds were tested following the procedure described by the manufacturer (Perkin-Elmer, Italy). Displacement curves were generated by incubating drugs with [^3H]-CP-55 940 for 90 min at 30 °C. Ki values were calculated by applying the Cheng−Prusoff equation to the IC50 values for the displacement of the bound radioligand by increasing concentrations of the test compound. Data represent the mean values of three independent experiments performed in duplicate and are expressed as the average of Ki (µM) ± standard deviation. Data were analyzed using PRISM.9.3 software (GraphPad Software Inc, San Diego, CA, USA).
On the technique in general: Displacement assays read how much labelled ligand stays bound in the presence of the test substance.

The target of data set [1] is T2, human CB2R (Homo sapiens, UniProt P34972). The experiment in a line: Competition binding assay, displacement of [3H]-CP-55,940 from membranes of HEK-293 cells overexpressing CB2R. On the set-up: purchased Perkin-Elmer, Italy; host or cells: HEK-293 cells (membranes). As for the experimental part: as §1, §2
T2 sequence (P34972 whole entry): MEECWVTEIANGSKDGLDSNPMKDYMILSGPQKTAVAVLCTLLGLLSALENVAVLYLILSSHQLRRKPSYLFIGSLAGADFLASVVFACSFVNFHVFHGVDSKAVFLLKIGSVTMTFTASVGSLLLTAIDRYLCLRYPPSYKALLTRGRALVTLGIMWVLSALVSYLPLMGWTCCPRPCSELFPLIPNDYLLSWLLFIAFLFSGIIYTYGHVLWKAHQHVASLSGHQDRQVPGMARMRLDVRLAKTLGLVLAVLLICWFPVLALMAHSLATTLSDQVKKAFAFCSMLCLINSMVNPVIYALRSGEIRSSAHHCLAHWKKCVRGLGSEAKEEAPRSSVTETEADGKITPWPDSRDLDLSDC
The target in data set [2] is T2, human CB2R. The experiment in a line: cAMP Hunter assay, effect on NKH-477-induced cAMP levels (agonist mode). It is filed as cell-based. As for the experimental part:
The above-mentioned compounds were tested for their functional activity.
Gi-coupled cAMP modulation was measured following the manufacturer’s protocol (Eurofins, Fremont, CA, USA), as previously reported. Briefly, CHO-K1 cells overexpressing the human CB2R were plated into a 96-well plate (10,000 cells/well) and incubated overnight at 37 °C, 5% CO2. Media was aspirated and replaced with 30 μL of assay buffer. Cells were incubated for 30 min at 37 °C with 15 μL of 3× dose−response solutions of samples prepared in the presence of a cell assay buffer containing 3× of 25 μM NKH-477 solution to stimulate adenylate cyclase and enhance basal cAMP levels. For those compounds not showing a decrease in cAMP levels, the effect upon receptor activation in the presence of the JWH-133 selective agonist was investigated. Cells were pre-incubated with samples (15 min at 37 °C at 6× the final desired concentration), followed by 30 min incubation with the JWH-133 agonist challenge at the EC80 concentration (EC80 = 4 μM, previously determined in separate experiments) in the presence of NKH-477 to stimulate adenylate cyclase and enhance cAMP levels. Cell lysis and cAMP detection were performed as per the manufacturer’s protocol. Luminescence measurements were performed using a GloMax Multi Detection System (Promega, Italy). Data are reported as the means ± SEM of three independent experiments conducted in triplicate and were normalized considering the NKH-477 stimulus alone as 100% of the response. Data were analyzed using PRISM.9.3 software (GraphPad Software Inc, San Diego, CA, USA).
Figure 7 Concentration-response curves of compounds in the cAMP Hunter assay. Curves show the effect of increasing concentrations of compounds on NKH-477-induced cAMP levels in stable CHO cells expressing the human CB2. Data are reported as the means ± SEM of three independent experiments conducted in triplicate, normalized to the maximal and minimal responses.
Background: Cyclic AMP is a second messenger, typically raised through Gs and lowered through Gi signalling.

[3] abbreviates: [3H]-CP-55,940 displacement, HEK-293 membranes, 90 min at 30 °C, Cheng-Prusoff, read-out: Ki hCB1R (µM ± S.E.).
The mark [4] stands for this setting: [3H]-CP-55,940 displacement, HEK-293 membranes, 90 min at 30 °C, Cheng-Prusoff, read-out: Ki hCB2R (µM ± S.E.).
Where [5] appears, read: max conc. tested 10 µM, read-out: % Displacement/ Max Conc. Tested, hCB2R (converted).

Read-outs that look alike come from different tables or passages of the source.

Compound `Cc1cc(C)c(S(=O)(=O)N=C2CN(C(C)(C)C)C(=O)N2CC2CC2)c(C)c1` [Compound 10f, N-[1-tert-Butyl-3-cyclopropylmethyl-2-oxoimidazolidin-4-ylidene]-2,4,6-trimethylbenzenesulfonamide] gave a melting point of 149 to 150 °C. In addition, the Ki at human recombinant CB1R (setting [3]) is more than 10 µM. The inhibition at 10 µM at human recombinant CB1R was 15.4%. In addition, on human CB2R [1] (setting [4]), the Ki was 0.63 ± 0.14 µM. Moreover, on human CB2R [1] (setting [5]), the inhibition at 10 µM was 81.3%.
As for `CC(C)(C)N1CC(=NS(=O)(=O)c2cccc3ccccc23)N(CC2CC2)C1=O` [Compound 10g, N-[1-tert-Butyl-3-cyclopropylmethyl-2-oxoimidazolidin-4-ylidene]naphthalene-1-sulfonamide], the inhibition constant Ki is more than 10 µM at human recombinant CB1R and 0.06 ± 0.01 µM on human CB2R [1]. For the same compound, the inhibition at 10 µM at human recombinant CB1R was 24.9%; at human CB2R [1] (read-out: % Displacement/ Max Conc. Tested, hCB2R) it was 95.7%. The compound also displayed an EC50 at human CB2R [2] of 0.072 µM. On human CB2R [2] (CHO-K1 cells overexpressing human CB2R, compound alone), the “Effect on NKH-477-induced cAMP levels (functional behavior)” value is recorded as “typical agonist behavior”.
Turning to `COCCN1C(=O)N(C(C)(C)C)CC1=NS(C)(=O)=O` [Compound 11a, N-[1-tert-Butyl-3-(2-methoxyethyl)-2-oxoimidazolidin-4-ylidene]methanesulfonamide], the melting point lay in the range of 70.5 to 71 °C. The Ki at human recombinant CB1R (setting [3]) was more than 10 µM. On human recombinant CB1R, the inhibition at 10 µM stood at 65.3%. Also, the Ki on human CB2R [1] (setting [4]) is more than 10 µM. In addition, the inhibition at 10 µM on human CB2R [1] (setting [5]) was 14.1%.
The compound `COCCN1C(=O)N(C(C)(C)C)CC1=NS(=O)(=O)c1ccccc1` [Compound 11b, N-[1-tert-Butyl-3-(2-methoxyethyl)-2-oxoimidazolidin-4-ylidene]benzenesulfonamide] showed a melting point of 104.5 to 105 °C. Besides, the Ki at human recombinant CB1R (setting [3]) is more than 10 µM. Also, the inhibition at 10 µM on human recombinant CB1R was determined as 52.6%. Further, the Ki at human CB2R [1] (setting [4]) is more than 10 µM. Besides, the inhibition at 10 µM on human CB2R [1] (setting [5]) was 21.2%.
For the compound `COCCN1C(=O)N(C(C)(C)C)CC1=NS(=O)(=O)c1ccc(C)cc1` [Compound 11c, N-[1-tert-Butyl-3-(2-methoxyethyl)-2-oxoimidazolidin-4-ylidene]-4-methylbenzene-1-sulfonamide], the melting point is 106 to 107 °C. The Ki on human recombinant CB1R (setting [3]) is more than 10 µM. Besides, the inhibition at 10 µM on human recombinant CB1R came out at 57%. In addition, the Ki at human CB2R [1] (setting [4]) is more than 10 µM. The inhibition at 10 µM on human CB2R [1] (setting [5]) was 33.4%.
Regarding `COCCN1C(=O)N(C(C)(C)C)CC1=NS(=O)(=O)c1ccc(Br)cc1` [Compound 11d, 4-Bromo-N-[1-tert-butyl-3-(2-methoxyethyl)-2-oxoimidazolidin-4-ylidene]benzenesulfonamide], the melting point was 103.5 to 104 °C. The Ki at human recombinant CB1R (setting [3]) was more than 10 µM. The inhibition at 10 µM at human recombinant CB1R turned out to be 50.1%. Moreover, the Ki at human CB2R [1] (setting [4]) is more than 10 µM. The inhibition at 10 µM at human CB2R [1] (setting [5]) was 42.7%.
The compound `COCCN1C(=O)N(C(C)(C)C)CC1=NS(=O)(=O)c1cccc(Br)c1` [Compound 11e, 3-Bromo-N-[1-tert-butyl-3-(2-methoxyethyl)-2-oxoimidazolidin-4-ylidene]benzenesulfonamide] registered a melting point of 104 to 105 °C. The Ki on human recombinant CB1R (setting [3]) was more than 10 µM. In addition, the inhibition at 10 µM at human recombinant CB1R came to 10%. The Ki on human CB2R [1] (setting [4]) was more than 10 µM. Besides, the inhibition at 10 µM on human CB2R [1] (setting [5]) is 41.1%.
`COCCN1C(=O)N(C(C)(C)C)CC1=NS(=O)(=O)c1c(C)cc(C)cc1C` [Compound 11f, N-[1-tert-Butyl-3-(2-methoxyethyl)-2-oxoimidazolidin-4-ylidene]-2,4,6-trimethylbenzene-1-sulfonamide] had a melting point of 141 to 143.5 °C. Also, the Ki at human recombinant CB1R (setting [3]) was more than 10 µM. In addition, at human recombinant CB1R, the inhibition at 10 µM worked out at 55.7%. The Ki on human CB2R [1] (setting [4]) was found to be 3.45 ± 0.95 µM. Further, the inhibition at 10 µM on human CB2R [1] (setting [5]) was 64.8%.
Take `COCCN1C(=O)N(C(C)(C)C)CC1=NS(=O)(=O)c1cccc2ccccc12` [Compound 11g, N-[1-tert-Butyl-3-(2-methoxyethyl)-2-oxoimidazolidin-4-ylidene]naphthalene-1-sulfonamide]: the melting point was in the range of 110.5 to 111 °C. The Ki on human recombinant CB1R (setting [3]) was more than 10 µM. Also, on human recombinant CB1R, the inhibition at 10 µM came to 13.5%. Besides, the Ki on human CB2R [1] (setting [4]) was 1.66 ± 0.2 µM. At human CB2R [1] (setting [5]), the inhibition at 10 µM was 78.7%.
For the compound `COCCN1C(=O)N(C(C)(C)C)CC1=NS(=O)(=O)c1ccc2ccccc2c1` [Compound 11h, N-[1-tert-Butyl-3-(2-methoxyethyl)-2-oxoimidazolidin-4-ylidene]naphthalene-2-sulfonamide], the melting point lay in the range of 129.5 to 130.5 °C. The Ki at human recombinant CB1R (setting [3]) is more than 10 µM. In addition, the inhibition at 10 µM on human recombinant CB1R worked out at 45.3%. Also, the Ki at human CB2R [1] (setting [4]) is more than 10 µM. The inhibition at 10 µM at human CB2R [1] (setting [5]) was 40.1%.
Compound `Cc1ccc(S(=O)(=O)N=C2CN(C34CC5CC(CC(C5)C3)C4)C(=O)N2CC2CC2)cc1` [Compound 12c, N-[1-Adamant-1-yl-3-cyclopropylmethyl-2-oxoimidazolidin-4-ylidene]-4-methyl-1-benzenesulfonamide] yielded a melting point of 188.5 to 189 °C. For the same compound, the Ki at human recombinant CB1R (setting [3]) was more than 10 µM. The inhibition at 10 µM at human recombinant CB1R is 34.6%. Moreover, the Ki at human CB2R [1] (setting [4]) is more than 10 µM. Moreover, the inhibition at 10 µM at human CB2R [1] (setting [5]) was 20.6%.
Take `O=C1N(CC2CC2)C(=NS(=O)(=O)c2ccc(Br)cc2)CN1C12CC3CC(CC(C3)C1)C2` [Compound 12d, N-[1-Adamant-1-yl-3-cyclopropylmethyl-2-oxoimidazolidin-4-ylidene]-4-bromo-1-benzenesulfonamide]: the melting point lay within 176 to 176.5 °C. For the same compound, the Ki on human recombinant CB1R (setting [3]) was more than 10 µM. Further, the inhibition at 10 µM on human recombinant CB1R is 47.9%. The Ki at human CB2R [1] (setting [4]) is more than 10 µM. Besides, the inhibition at 10 µM at human CB2R [1] (setting [5]) is 32.5%.
For the compound `Cc1cc(C)c(S(=O)(=O)N=C2CN(C34CC5CC(CC(C5)C3)C4)C(=O)N2CC2CC2)c(C)c1` [Compound 12f, N-[1-Adamant-1-yl-3-cyclopropylmethyl-2-oxoimidazolidin-4-ylidene]-2,4,6-trimethyl-1-benzenesulfonamide], the melting point is 166.5 to 167.5 °C. Besides, the Ki on human recombinant CB1R (setting [3]) is more than 10 µM. Besides, the inhibition at 10 µM on human recombinant CB1R is 59.2%. Further, the Ki on human CB2R [1] (setting [4]) is more than 10 µM. Further, the inhibition at 10 µM on human CB2R [1] (setting [5]) was 40.2%.
In the case of `O=C1N(CC2CC2)/C(=N/S(=O)(=O)c2cccc3ccccc23)CN1C12CC3CC(CC(C3)C1)C2` [Compound 12g, N-[1-Adamant-1-yl-3-cyclopropylmethyl-2-oxoimidazolidin-4-ylidene]naphtalene-1-sulfonamide], the melting point was 188.5 to 189 °C. Also, the Ki at human recombinant CB1R (setting [3]) is more than 10 µM. Besides, at human recombinant CB1R, the inhibition at 10 µM was determined as 12.8%. For the same compound, the Ki at human CB2R [1] (setting [4]) was more than 10 µM. Besides, on human CB2R [1] (setting [5]), the inhibition at 10 µM was 45.6%.
Consider `O=C1N(CC2CC2)/C(=N/S(=O)(=O)c2ccc3ccccc3c2)CN1C12CC3CC(CC(C3)C1)C2` [Compound 12h, N-[1-Adamant-1-yl-3-cyclopropylmethyl-2-oxoimidazolidin-4-ylidene]naphtalene-2-sulfonamide], for which the melting point was 167 to 167.5 °C. In addition, on human recombinant CB1R (setting [3]), the Ki is more than 10 µM. For the same compound, at human recombinant CB1R, the inhibition at 10 µM was 38.5%. At human CB2R [1] (setting [4]), the Ki is more than 10 µM. Besides, the inhibition at 10 µM at human CB2R [1] (setting [5]) was 17.7%.
